Laboratory results published in patent US7705016B2, “Regulation of food intake by modulation of long-chain fatty acyl-CoA levels in the hypothalamus” (Albert Einstein College of Medicine of Yeshiva University, priority 2003, dated 2010).

Target: T1, hypothalamic CPT1 (Rattus norvegicus, UniProt P32198)
T1 sequence (P32198 1-773): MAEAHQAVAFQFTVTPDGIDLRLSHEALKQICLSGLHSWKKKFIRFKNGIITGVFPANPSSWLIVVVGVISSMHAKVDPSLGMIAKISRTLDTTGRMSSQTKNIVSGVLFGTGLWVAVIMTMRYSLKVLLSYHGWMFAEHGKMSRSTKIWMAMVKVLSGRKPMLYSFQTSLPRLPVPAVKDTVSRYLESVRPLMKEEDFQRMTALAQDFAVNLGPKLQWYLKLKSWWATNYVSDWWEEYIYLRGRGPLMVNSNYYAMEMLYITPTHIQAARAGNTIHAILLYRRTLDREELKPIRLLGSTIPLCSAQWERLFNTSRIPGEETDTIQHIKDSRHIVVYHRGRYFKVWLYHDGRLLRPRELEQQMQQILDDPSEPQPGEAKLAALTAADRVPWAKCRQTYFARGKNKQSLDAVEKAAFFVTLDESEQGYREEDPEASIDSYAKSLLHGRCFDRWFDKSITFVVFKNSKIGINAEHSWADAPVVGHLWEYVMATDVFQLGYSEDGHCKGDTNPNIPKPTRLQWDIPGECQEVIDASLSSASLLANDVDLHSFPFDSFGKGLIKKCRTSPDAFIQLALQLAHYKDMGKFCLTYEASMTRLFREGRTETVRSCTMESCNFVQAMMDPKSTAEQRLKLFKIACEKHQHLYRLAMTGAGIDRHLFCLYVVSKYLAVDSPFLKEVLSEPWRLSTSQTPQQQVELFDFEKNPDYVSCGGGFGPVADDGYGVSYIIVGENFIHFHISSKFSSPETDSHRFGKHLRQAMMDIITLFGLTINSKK
Experiment: ICV infusion with pancreatic-insulin clamp, glucose kinetics (Example 1)
Type: in vivo
Set-up: CPT1 activity was measured in the particulate fraction of protein extracts from animals treated with ICV control injections; from tissue; host or cells: hypothalamus (arcuate nucleus) of male Sprague-Dawley rats, in vivo or ex vivo; Insulin (iU/ml): unit not given here
Conditions: for Food Intake: measured prior to acute ICV infusion, except CPT1L-Ribo group (3 days after ICV); for decrease in glucose production (GP): basal and equal insulin levels (~20 μU/ml), ICV; for glucose production (GP) during pancreatic clamp vs ICV vehicle controls: ~basal insulin concentrations, p<0.01
Procedure: Hypothalamic inhibition of CPT1 inhibits glucose production. Experiments were also designed to examine the effect of central inhibition of CPT-1 on whole body insulin action (FIG. 4a,b). Insulin action was assessed by a combination of ICV infusions with systemic pancreatic-insulin clamp studies (FIG. 4b). In these studies, the daily food intake was matched in the rats receiving ICV vector and ICV CPT1L-Ribo (Table 1). All rats also received an intra-arterial infusion of [3-^3H]-glucose for the last 4 hr of ICV infusion and a pancreatic/insulin clamp (insulin 1 mU/kg.min; somatostatin 3 μg/kg/min) during the last 2 hr of the study (Obici et al., 2002a; Obici et al., 2001). As expected in the presence of ˜basal circulating insulin levels (clamp procedure; Table 1), the rate of glucose infusion (GIR) required to maintain euglycemia was marginal in ICV control studies (vector-ST1340- or vehicle-infused animals; ˜0.8 mg/kg/min). By contrast, following ICV infusion of inhibitors of CPT-1 expression or activity glucose had to be infused at the rate of ˜5 mg/kg/min in order to prevent hypoglycemia. Thus, central inhibition of CPT-1 activity in the presence of fixed and basal insulin concentrations stimulates insulin action on glucose homeostasis.
Animal preparation for in vivo experiments. We studied ninety-three 10-week old male Sprague-Dawley rats (Charles River Breeding Laboratories, Wilmington, Mass.). Rats were housed in individual cages and subjected to a standard light-dark cycle. Three weeks prior to the in vivo studies, we placed a chronic catheter in the third cerebral ventricle by stereotaxic surgery (Obici et al., 2002a; Obici et al., 2001; Liu et al., 1998). One week before the pancreatic-insulin clamp protocols, we placed additional catheters in the right internal jugular and left carotid artery (Obici et al., 2001; Liu et al., 1998). All ICV solutions were dissolved in artificial cerebral spinal fluid (aCSF). Food intake was monitored daily.
Measurements of in vivo glucose kinetics and pancreatic-insulin clamp procedure. The infusion studies lasted a total of 360 min (FIG. 3a). Briefly, at t=0 min a primed-continuous ICV infusion of either CPT1 inhibitors or control solution was initiated and maintained for the remainder of the study. 2-tetradecylglydate (TDGA, a gift from Dr. Manuel Guzman) was dissolved in DMSO, diluted into aCSF (Harvard Apparatus) and infused ICV at a rate of 50 pmoles/hr. […] Prior to the pancreatic-insulin clamp studies, rats receiving ICV injection of either CPT1L-Ribo or vector control three days prior to the clamp procedure were randomized into two pair-fed experimental groups. A primed-continuous infusion of HPLC-purified [3-^3H]-glucose (New England Nuclear, Boston, Mass.; 40 μCi bolus, 0.4 μCi/min) was started at t=120 min and continued for the duration of the study (Obici et al., 2002a; Obici et al., 2001; Liu et al., 1998). Finally, a pancreatic-insulin clamp (Obici et al., 2002a; Obici et al., 2001; Liu et al., 1998) was initiated at t=240 min and lasted for 2 hours. This procedure involved the infusion of somatostatin (3 μg/kg/min), insulin (1 mU/kg/min), and glucose as needed to prevent hypoglycemia, or antibodies against C peptide (Linco) and Melanocortin Receptor type 2 (Chemicon). The rate of insulin infusion was designed to replace normal basal levels in postabsorptive rats.
Radioactivity of [^3H]glucose in plasma was measured from supernatants of Ba(OH)2 and ZnSO4 precipitates after evaporation to dryness for the removal of tritiated water (Somogyi pellet). The specific activity of tritiated water in plasma (Somogyi filtrate) was determined from the total counts of the protein-free supernatant before and after evaporation to dryness. Under steady state conditions for plasma glucose concentration, the rate of glucose disappearance (Rd) equals the rate of glucose appearance (Ra). […]

| Molecule | Body wt. (Basal) [g] | FFA (Basal) [mM] | Glucose (Basal) [mM] | Insulin (Basal) [ng/mL] | Leptin (Basal) [ng/mL] | Food Intake (Basal) [g] | FFA (Clamp, steady-state) [mM] | Glucose (Clamp, steady-state) [mM] | Insulin (iU/ml) (Clamp, steady-state) | decrease in glucose production (GP) [%] | glucose production (GP) during pancreatic clamp vs ICV vehicle controls |
| --- | --- | --- | --- | --- | --- | --- | --- | --- | --- | --- | --- |
| CCCCCCCCCCCCCCNC(=O)N[C@H](CC(=O)[O-])C[N+](C)(C)C [ST1326, (R)-N-(tetradecylcarbamoyl)-aminocarnitine] | 302 ± 4 | 0.5 ± 0.1 | 8.1 ± 0.7 | 1.4 ± 0.2 | 0.9 ± 0.1 | 21 ± 2 | 0.4 ± 0.1 | 8.1 ± 0.8 | 21 ± 2 | 44±7 | markedly inhibited GP |
| CPT1L-Ribo: plasmid (pTarget, CMV promoter) expressing a hammerhead ribozyme that specifically cleaves rat CPT1L mRNA, complexed to PEI for ICV injection (DNA CUGUACCAAAGAGCUGUAGAGUCCGUGAGGACGAAACGCCGCUCACAAUG) | 277 ± 8 | 0.5 ± 0.1 | 8.2 ± 0.6 |  |  | 14 ± 2 | 0.4 ± 0.1 | 8.1 ± 0.5 | 21 ± 2 | 30±3 | markedly inhibited GP |
